Data taken from patent US8450319B2, “Pyrrolopyridazinone compound” (Ube Industries, Ltd., priority 2006, dated 2013).
Structures can show the parent of a compound that is named as a salt.

What was measured:
PDE4 = experiment: Measurement of PDE4 enzyme inhibiting action; format: biochemical, human; details: PDE4 enzyme solution from polymorphonuclear leukocytes of healthy volunteer; 0.2 μM [3H]cAMP, 30° C., 30 minutes; read-out: PDE4 inhibition IC50 value
Procedure: Preparation of a PDE4 enzyme solution was carried out according to the method of Cooper et al. (Br. J. Pharmacol., 126, 1863 (1999)) by modifying a part thereof. Heparin-treated peripheral blood from healthy volunteer was stratified by a blood cell separating solution (Polymorphprep™, available from AXIS-SHIELD PoC AS CO.), and centrifugation was carried out at 20° C. with 1900 rpm for 27 minutes to obtain polymorphonuclear leukocytes. The polymorphonuclear leukocytes were washed with a Hanks' balanced salt solution, then, a mixed solution comprising 70% of 10 mM 3-morpholinopropane sulfonic acid buffer solution (pH 7.4) containing 1 mM EGTA, 1 mM magnesium acetate and 5 mM dithiothreitol and 30% of ethylene glycol was added thereto to dissolve the same under ice-cooling, and the obtained cell dissolved solution was used as a PDE4 enzyme solution.
Measurement of PDE4 activity was carried out according to the method of Owens, et al. (Biochem. J., 326, 53 (1997)) by modifying a part thereof. The PDE4 enzyme solution was incubated with a compound to be tested dissolved in dimethylsulfoxide in 80 mM Tris-HCl buffer solution (pH 7.4) containing 0.2 μM [^3H] cAMP, 0.1 mM cGMP, 20 mM MgCl2 and 12 mM 2-mercaptoethanol at 30° C. for 30 minutes. Trifluoroacetic acid (final concentration: 1%) was added to the mixture to stop the reaction, and the reaction mixture was added to neutral alumina column (BOND ELUT™, available from VARIAN INC.). After the column was washed with 100 mM Tris-HCl buffer solution (pH 8.0), [^3H] 5′-AMP was eluted with 2N sodium hydroxide solution, and radioactivity of the eluent was measured by a liquid scintillation analyzer.
A concentration of the compound to be tested which inhibits 50% of PDE4 activity was calculated from the relation between the concentration of the compound to be tested which had been added and PDE4 activity as an IC50 value.

IC50 (PDE4) [nM]	melting point	SMILES
36	232 to 242 °C	O=c1[nH]ncc2[nH]c(-c3ccc(OC(F)F)c4c3C=CC(C3CC3)O4)cc12 (stereo not shown) [Example 58, 2-(2-Cyclopropyl-8-difluoromethoxy-2H-chromen-5-yl)-1,5-dihydropyrrolo[2,3-d]pyridazin-4-one]
4.7	248 to 249 °C	O=c1[nH]ncc2[nH]c(-c3ccc(OC(F)F)c(OC4CC4)c3)c(C3CC3)c12 [Example 14, 2-(3-Cyclopropoxy-4-difluoromethoxyphenyl)-3-cyclopropyl-1,5-dihydropyrrolo[2,3-d]pyridazin-4-one]
8	226 to 234 °C	CC1(C)C=Cc2c(-c3[nH]c4cn[nH]c(=O)c4c3Cl)ccc(OC(F)F)c2O1 [Example 52, 3-Chloro-2-(8-difluoromethoxy-2,2-dimethyl-2H-chromen-5-yl)-1,5-dihydropyrrolo[2,3-d]pyridazin-4-one]
16	265 °C (dec.)	COc1ccc(-c2cc3c(=O)[nH]ncc3[nH]2)c2c1OC1(CCCC1)C2 [Example 50, 2-(2,3-Dihydro-7-methoxybenzofuran-2-spiro-1′-cyclopentan-4-yl)-1,5-dihydropyrrolo[2,3-d]pyridazin-4-one]
7.1	249 to 251 °C	O=c1[nH]ncc2[nH]c(-c3ccc(OC(F)F)c(OCC4CC4)c3)c(-c3ccccc3)c12 [Example 38, 2-(3-Cyclopropylmethoxy-4-difluoromethoxyphenyl)-3-phenyl-1,5-dihydropyrrolo[2,3-d]pyridazin-4-one]
0.18	215 to 217 °C	O=c1[nH]ncc2[nH]c(-c3ccc(OC(F)F)c(OC4CC4)c3)c(Cc3ccccc3)c12 [Example 19, 3-Benzyl-2-(3-cyclopropoxy-4-difluoromethoxyphenyl)-1,5-dihydropyrrolo[2,3-d]pyridazin-4-one]
0.23	139 to 143 °C	CC(C)C#CCc1c(-c2ccc(OC(F)F)c(OC3CC3)c2)[nH]c2cn[nH]c(=O)c12 [Example 73, 2-(3-cyclopropoxy-4-difluoromethoxyphenyl)-3-(4-methyl-2-pentynyl)-1,5-dihydropyrrolo[2,3-d]pyridazin-4-one]
5.2	267 to 270 °C (dec.)	O=c1[nH]ncc2[nH]c(-c3ccc(OC(F)F)c(OC4CC4)c3)c(Br)c12 [Example 3, 3-Bromo-2-(3-cyclopropoxy-4-difluoromethoxyphenyl)-1,5-dihydropyrrolo[2,3-d]pyridazin-4-one]
9.9	–	CC(C)Oc1cc(-c2[nH]c3cn[nH]c(=O)c3c2Br)ccc1OC(F)F [Example 41, 3-Bromo-2-(4-difluoromethoxy-3-isopropoxyphenyl)-1,5-dihydropyrrolo[2,3-d]pyridazin-4-one]
0.57	220 to 221 °C	COc1ccc(Cc2c(-c3ccc(OC(F)F)c(OC4CC4)c3)[nH]c3cn[nH]c(=O)c23)cn1 [Example 29, 2-(3-Cyclopropoxy-4-difluoromethoxyphenyl)-3-(6-methoxy-3-pyridylmethyl)-1,5-dihydropyrrolo[2,3-d]pyridazin-4-one]
1.5	202 to 203 °C	C=CC(O)c1c(-c2ccc(OC(F)F)c(OC3CC3)c2)[nH]c2cn[nH]c(=O)c12 (stereo not shown) [Example 75, 2-(3-Cyclopropoxy-4-difluoromethoxyphenyl)-3-(1-hydroxy-2-propenyl)-1,5-dihydropyrrolo[2,3-d]pyridazin-4-one]
2.6	198 to 200 °C	CCCCc1c(-c2ccc(OC)c(OC3CC3)c2)[nH]c2cn[nH]c(=O)c12 [Example 44, 3-Butyl-2-(3-cyclopropoxy-4-methoxyphenyl)-1,5-dihydropyrrolo[2,3-d]pyridazin-4-one]
6.6	–	CCc1c(-c2ccc(OC(F)F)c(OCC3CC3)c2)[nH]c2cn[nH]c(=O)c12 [Example 37, 2-(3-Cyclopropylmethoxy-4-difluoromethoxyphenyl)-3-ethyl-1,5-dihydropyrrolo[2,3-d]pyridazin-4-one HCl adduct]
13	> 300 °C	C#Cc1c(-c2ccc(OC(F)F)c(OC3CC3)c2)[nH]c2cn[nH]c(=O)c12 [Example 16, 2-(3-Cyclopropoxy-4-difluoromethoxyphenyl)-3-ethynyl-1,5-dihydropyrrolo[2,3-d]pyridazin-4-one]
3	196 to 197 °C	CC(C)OCc1c(-c2ccc(OC(F)F)c(OC3CC3)c2)[nH]c2cn[nH]c(=O)c12 [Example 60, 2-(3-Cyclopropoxy-4-difluoromethoxyphenyl)-3-isopropoxymethyl-1,5-dihydropyrrolo[2,3-d]pyridazin-4-one]
0.23	–	O=c1[nH]ncc2[nH]c(-c3ccc(OC(F)F)c(OC4CC4)c3)c(C(O)c3ccccc3)c12 (stereo not shown) [Example 20, 2-(3-Cyclopropoxy-4-difluoromethoxyphenyl)-3-hydroxyphenylmethyl-1,5-dihydropyrrolo[2,3-d]pyridazin-4-one]
11	> 300 °C	O=c1[nH]ncc2[nH]c(-c3ccc(OC(F)F)c4c3C=CC3(CCCC3)O4)c(Cl)c12 [Example 57, 3-Chloro-2-(8-difluoromethoxy-2H-chromen-2-spiro-1′-cyclopentan-5-yl)-1,5-dihydropyrrolo[2,3-d]pyridazin-4-one]
1.7	192 to 194 °C	CCCCc1c(-c2ccc(OC(F)F)c(OC3CC3)c2)[nH]c2cn[nH]c(=O)c12 [Example 8, 3-Butyl-2-(3-cyclopropoxy-4-difluoromethoxyphenyl)-1,5-dihydropyrrolo[2,3-d]pyridazin-4-one]
1.4	201 to 203 °C	CCOCCc1c(-c2ccc(OC(F)F)c(OC3CC3)c2)[nH]c2cn[nH]c(=O)c12 [Example 67, 2-(3-Cyclopropoxy-4-difluoromethoxyphenyl)-3-(2-ethoxyethyl)-1,5-dihydropyrrolo[2,3-d]pyridazin-4-one]
17	–	Cc1c(-c2ccc(OC(F)F)c3c2C=CC(C)(C)O3)[nH]c2cn[nH]c(=O)c12 [Example 53, 2-(8-Difluoromethoxy-2,2-dimethyl-2H-chromen-5-yl)-3-methyl-1,5-dihydropyrrolo[2,3-d]pyridazin-4-one HCl adduct]
7.9	258 to 260 °C	O=c1[nH]ncc2[nH]c(-c3ccc(OC(F)F)c(OCC4CC4)c3)c(Cl)c12 [Example 36, 3-Chloro-2-(3-cyclopropylmethoxy-4-difluoromethoxyphenyl)-1,5-dihydropyrrolo[2,3-d]pyridazin-4-one]
1.8	239 to 241 °C	CC(C)Cc1c(-c2ccc(OC(F)F)c(OC3CC3)c2)[nH]c2cn[nH]c(=O)c12 [Example 9, 2-(3-Cyclopropoxy-4-difluoromethoxyphenyl)-3-isobutyl-1,5-dihydropyrrolo[2,3-d]pyridazin-4-one]
0.38	186 to 188 °C	CCCCCCc1c(-c2ccc(OC(F)F)c(OC3CC3)c2)[nH]c2cn[nH]c(=O)c12 [Example 69, 2-(3-Cyclopropoxy-4-difluoromethoxyphenyl)-3-hexyl-1,5-dihydropyrrolo[2,3-d]pyridazin-4-one]
3.5	290 to 295 °C	O=c1[nH]ncc2[nH]c(-c3ccc(OC(F)F)c4c3CC3(CCCC3)O4)cc12 [Example 49, 2-(7-Difluoromethoxy-2,3-dihydrobenzofuran-2-spiro-1′-cyclopentan-4-yl)-1,5-dihydropyrrolo[2,3-d]pyridazin-4-one]

SMILES	IC50 (PDE4) [nM]	melting point
O=c1[nH]ncc2[nH]c(-c3ccc(OC(F)F)c(OC4CC4)c3)c(COC3CCC3)c12 [Example 13, 3-Cyclobutoxymethyl-2-(3-cyclopropoxy-4-difluoromethoxyphenyl)-1,5-dihydropyrrolo[2,3-d]pyridazin-4-one]	0.65	95 to 100 °C
O=c1[nH]ncc2[nH]c(-c3ccc(OC(F)F)c(OC4CCC4)c3)c(Br)c12 [Example 33, 3-Bromo-2-(3-cyclobutoxy-4-difluoromethoxyphenyl)-1,5-dihydropyrrolo[2,3-d]pyridazin-4-one]	1.8	234 to 238 °C
O=c1[nH]ncc2[nH]c(-c3ccc(OC(F)F)c(OC4CCC4)c3)c(-c3ccccc3)c12 [Example 34, 2-(3-Cyclobutoxy-4-difluoromethoxyphenyl)-3-phenyl-1,5-dihydropyrrolo[2,3-d]pyridazin-4-one]	8.7	280 to 284 °C
O=c1[nH]ncc2[nH]c(-c3ccc(OC(F)F)c(OC4CCC4)c3)cc12 [Example 31, 2-(3-Cyclobutoxy-4-difluoromethoxyphenyl)-1,5-dihydropyrrolo[2,3-d]pyridazin-4-one]	9.1	289 to 291 °C
